PMC3433743 (Bioorganic & medicinal chemistry letters, 2012)
Entries after “also recorded” stand apart in the source; their conditions may differ. Like-named read-outs stand apart in the source and are kept apart here.

Columns and labels:
[1] = cited from earlier work
LRRK2[A2016T] = LRRK2[A2016T] (Homo sapiens, UniProt Q5S007, A2016T); experiment: LRRK2 enzymatic assay, A2016T mutant; conditions: biochemical, Fig. 1
GFP-LRRK2[A2016T] = GFP-LRRK2[A2016T] (Homo sapiens, UniProt Q5S007, A2016T); assay type: cell-based; conditions: HEK293, LRRK2[A2016T], 90 min
GFP-LRRK2[A2016T], sequence (Q5S007 whole entry A2016T): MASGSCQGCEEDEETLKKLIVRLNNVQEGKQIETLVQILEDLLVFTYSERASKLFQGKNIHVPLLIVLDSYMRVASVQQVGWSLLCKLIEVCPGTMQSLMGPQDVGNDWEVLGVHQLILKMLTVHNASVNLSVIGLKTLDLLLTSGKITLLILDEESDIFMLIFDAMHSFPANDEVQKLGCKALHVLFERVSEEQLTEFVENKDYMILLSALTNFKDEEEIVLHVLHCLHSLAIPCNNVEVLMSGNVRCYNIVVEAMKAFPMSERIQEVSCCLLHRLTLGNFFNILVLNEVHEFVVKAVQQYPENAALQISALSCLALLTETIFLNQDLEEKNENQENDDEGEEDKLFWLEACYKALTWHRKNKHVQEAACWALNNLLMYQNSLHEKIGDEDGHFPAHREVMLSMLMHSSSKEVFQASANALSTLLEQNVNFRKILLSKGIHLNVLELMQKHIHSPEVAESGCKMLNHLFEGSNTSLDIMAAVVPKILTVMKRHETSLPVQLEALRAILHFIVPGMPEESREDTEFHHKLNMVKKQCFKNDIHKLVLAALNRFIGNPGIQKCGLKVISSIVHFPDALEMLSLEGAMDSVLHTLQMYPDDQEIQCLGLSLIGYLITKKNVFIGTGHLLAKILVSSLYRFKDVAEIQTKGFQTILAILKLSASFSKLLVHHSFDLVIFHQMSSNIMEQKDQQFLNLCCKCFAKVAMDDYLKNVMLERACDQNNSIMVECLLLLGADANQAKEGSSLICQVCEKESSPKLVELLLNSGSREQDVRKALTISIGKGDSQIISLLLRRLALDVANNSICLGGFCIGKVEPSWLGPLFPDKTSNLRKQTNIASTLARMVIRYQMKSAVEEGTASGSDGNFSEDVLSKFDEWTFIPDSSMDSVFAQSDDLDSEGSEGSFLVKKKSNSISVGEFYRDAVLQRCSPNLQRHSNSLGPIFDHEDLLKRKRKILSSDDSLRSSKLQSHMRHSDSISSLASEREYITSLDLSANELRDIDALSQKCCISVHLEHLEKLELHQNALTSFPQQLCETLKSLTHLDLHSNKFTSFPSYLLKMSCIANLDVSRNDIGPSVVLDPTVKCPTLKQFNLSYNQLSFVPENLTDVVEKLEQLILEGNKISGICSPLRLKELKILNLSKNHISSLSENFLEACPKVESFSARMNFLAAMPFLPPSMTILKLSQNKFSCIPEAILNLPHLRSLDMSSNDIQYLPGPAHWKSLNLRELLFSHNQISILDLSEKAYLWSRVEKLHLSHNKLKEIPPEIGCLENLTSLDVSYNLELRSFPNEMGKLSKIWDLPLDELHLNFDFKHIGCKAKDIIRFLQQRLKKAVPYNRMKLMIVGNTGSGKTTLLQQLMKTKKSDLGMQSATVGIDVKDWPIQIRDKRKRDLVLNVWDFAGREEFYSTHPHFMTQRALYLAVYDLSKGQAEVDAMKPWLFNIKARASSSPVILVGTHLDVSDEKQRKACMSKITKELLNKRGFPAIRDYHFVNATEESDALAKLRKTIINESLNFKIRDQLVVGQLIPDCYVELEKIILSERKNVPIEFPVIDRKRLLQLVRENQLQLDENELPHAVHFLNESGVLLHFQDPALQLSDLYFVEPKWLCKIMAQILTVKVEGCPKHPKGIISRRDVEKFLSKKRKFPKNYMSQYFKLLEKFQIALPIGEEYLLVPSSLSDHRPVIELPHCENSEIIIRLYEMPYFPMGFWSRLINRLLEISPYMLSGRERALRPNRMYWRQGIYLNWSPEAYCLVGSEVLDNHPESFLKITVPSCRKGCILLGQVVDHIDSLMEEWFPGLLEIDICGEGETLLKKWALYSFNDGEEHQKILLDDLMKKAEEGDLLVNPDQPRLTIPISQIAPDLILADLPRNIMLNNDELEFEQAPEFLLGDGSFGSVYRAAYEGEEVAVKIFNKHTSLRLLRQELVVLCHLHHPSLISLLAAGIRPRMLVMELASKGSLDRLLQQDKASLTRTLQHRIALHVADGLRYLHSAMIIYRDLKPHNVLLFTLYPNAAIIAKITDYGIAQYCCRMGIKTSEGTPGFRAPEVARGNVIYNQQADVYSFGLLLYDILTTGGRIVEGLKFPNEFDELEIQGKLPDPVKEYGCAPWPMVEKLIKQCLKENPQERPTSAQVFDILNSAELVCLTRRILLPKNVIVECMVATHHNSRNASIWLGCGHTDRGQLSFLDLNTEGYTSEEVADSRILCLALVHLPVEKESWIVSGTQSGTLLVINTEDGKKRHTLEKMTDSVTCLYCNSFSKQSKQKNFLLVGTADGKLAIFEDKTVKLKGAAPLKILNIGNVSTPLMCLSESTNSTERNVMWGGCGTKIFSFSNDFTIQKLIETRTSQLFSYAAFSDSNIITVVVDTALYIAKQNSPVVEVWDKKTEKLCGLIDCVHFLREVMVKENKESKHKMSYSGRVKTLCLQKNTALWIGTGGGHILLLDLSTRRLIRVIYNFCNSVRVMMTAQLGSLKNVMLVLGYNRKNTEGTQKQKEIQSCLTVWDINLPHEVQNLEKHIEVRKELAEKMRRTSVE

endogenous LRRK2 = endogenous LRRK2 (Mus musculus, UniProt Q5S006); assay type: in vivo
endogenous LRRK2, sequence (Q5S006 whole entry): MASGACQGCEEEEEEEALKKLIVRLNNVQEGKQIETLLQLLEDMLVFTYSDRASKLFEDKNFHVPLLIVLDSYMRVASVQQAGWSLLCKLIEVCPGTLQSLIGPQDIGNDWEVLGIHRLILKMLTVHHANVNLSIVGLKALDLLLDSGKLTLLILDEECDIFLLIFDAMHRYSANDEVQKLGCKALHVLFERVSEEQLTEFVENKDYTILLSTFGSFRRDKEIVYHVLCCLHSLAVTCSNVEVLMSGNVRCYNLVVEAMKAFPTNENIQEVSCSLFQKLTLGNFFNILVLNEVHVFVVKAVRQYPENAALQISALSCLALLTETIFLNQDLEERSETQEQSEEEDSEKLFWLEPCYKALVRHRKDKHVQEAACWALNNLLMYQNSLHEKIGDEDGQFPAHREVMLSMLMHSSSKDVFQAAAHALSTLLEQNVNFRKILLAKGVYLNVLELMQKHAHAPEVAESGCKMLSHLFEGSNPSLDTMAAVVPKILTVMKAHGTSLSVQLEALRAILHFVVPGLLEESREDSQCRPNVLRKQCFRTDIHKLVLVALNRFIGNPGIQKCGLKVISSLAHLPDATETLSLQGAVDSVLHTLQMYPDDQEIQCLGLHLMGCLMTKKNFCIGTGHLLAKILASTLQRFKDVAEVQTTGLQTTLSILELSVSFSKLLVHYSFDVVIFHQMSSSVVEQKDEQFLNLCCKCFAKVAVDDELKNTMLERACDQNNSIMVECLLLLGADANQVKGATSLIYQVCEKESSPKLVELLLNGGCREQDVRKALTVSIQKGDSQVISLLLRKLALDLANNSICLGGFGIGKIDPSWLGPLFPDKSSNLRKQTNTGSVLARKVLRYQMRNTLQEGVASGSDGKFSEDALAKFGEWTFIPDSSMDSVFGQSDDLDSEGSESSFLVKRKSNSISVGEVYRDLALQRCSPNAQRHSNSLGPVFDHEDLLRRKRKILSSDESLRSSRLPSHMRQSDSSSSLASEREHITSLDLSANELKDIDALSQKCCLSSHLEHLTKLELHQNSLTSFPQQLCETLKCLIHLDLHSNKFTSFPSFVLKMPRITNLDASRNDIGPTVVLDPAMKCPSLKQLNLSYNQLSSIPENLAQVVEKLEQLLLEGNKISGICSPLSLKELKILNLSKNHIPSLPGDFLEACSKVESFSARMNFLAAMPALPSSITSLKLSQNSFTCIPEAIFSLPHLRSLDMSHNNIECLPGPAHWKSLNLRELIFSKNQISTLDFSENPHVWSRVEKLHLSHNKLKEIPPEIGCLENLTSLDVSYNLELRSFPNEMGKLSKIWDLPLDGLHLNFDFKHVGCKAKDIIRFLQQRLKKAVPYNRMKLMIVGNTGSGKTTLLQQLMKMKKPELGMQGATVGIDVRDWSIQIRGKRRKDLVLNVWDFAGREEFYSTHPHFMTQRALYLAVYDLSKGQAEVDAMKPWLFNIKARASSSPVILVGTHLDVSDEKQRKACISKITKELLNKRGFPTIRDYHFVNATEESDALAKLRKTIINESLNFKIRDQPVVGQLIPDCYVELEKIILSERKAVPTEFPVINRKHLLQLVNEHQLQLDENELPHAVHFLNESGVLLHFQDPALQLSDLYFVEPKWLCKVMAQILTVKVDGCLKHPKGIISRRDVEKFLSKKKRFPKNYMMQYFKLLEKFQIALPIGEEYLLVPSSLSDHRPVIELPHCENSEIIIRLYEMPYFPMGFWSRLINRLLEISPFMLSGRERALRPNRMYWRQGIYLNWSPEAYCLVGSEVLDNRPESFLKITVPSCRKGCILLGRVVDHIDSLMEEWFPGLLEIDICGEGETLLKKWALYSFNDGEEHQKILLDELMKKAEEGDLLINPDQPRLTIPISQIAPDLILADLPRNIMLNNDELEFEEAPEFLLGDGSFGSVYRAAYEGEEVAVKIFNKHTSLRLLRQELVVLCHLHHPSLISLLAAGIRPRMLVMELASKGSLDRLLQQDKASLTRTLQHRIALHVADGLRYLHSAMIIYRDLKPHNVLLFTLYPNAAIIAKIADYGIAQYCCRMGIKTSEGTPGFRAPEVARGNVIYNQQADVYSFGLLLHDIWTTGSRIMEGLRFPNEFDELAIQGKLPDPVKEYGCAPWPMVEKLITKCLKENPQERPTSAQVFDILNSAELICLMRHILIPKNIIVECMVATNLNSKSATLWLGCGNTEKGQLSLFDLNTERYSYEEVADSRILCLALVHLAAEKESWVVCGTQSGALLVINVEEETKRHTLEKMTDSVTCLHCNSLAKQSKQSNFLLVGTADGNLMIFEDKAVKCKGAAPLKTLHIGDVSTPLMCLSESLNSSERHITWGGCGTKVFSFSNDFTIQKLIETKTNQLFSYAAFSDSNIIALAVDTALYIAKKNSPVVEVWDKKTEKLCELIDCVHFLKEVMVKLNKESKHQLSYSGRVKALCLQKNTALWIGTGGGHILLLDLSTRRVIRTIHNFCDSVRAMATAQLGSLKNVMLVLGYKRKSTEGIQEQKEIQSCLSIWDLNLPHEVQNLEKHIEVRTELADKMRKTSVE

CAMKKβ = CAMKKβ (Homo sapiens, UniProt Q96RR4); experiment: Radioactivity-based enzymatic kinase panel; conditions: read-out: Inhibition of kinase activity
CHK2 = CHK2 (Homo sapiens, UniProt O96017); experiment: Radioactivity-based enzymatic kinase panel; conditions: read-out: Inhibition of kinase activity
NUAK1 = target: T1, NUAK1 (Homo sapiens, UniProt O60285); experiment: Radioactivity-based enzymatic kinase panel; conditions: read-out: Inhibition of kinase activity
T1 sequence (O60285 1-661): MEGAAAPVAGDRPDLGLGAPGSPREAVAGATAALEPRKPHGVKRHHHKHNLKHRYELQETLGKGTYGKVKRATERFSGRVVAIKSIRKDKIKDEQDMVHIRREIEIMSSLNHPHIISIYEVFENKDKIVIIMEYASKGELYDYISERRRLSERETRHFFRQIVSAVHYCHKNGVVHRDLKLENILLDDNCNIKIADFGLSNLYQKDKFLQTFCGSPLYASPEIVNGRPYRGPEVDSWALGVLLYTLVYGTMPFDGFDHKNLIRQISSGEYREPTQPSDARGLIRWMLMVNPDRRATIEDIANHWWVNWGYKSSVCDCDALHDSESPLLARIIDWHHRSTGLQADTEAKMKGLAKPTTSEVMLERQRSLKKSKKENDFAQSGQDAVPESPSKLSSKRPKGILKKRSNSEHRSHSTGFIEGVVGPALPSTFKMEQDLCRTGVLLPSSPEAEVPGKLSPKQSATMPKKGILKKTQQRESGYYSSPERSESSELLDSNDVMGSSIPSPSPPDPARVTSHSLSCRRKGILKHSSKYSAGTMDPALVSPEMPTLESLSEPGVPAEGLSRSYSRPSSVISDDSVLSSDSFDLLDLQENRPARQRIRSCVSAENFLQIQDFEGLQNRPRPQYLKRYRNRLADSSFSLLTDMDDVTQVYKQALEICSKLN

PHKã1(PBK) = PHKã1(PBK) (Homo sapiens, UniProt Q16816); experiment: Radioactivity-based enzymatic kinase panel; conditions: read-out: Inhibition of kinase activity
TSSK1 = target: T2, TSSK1 (Homo sapiens, UniProt Q9BXA7); experiment: Radioactivity-based enzymatic kinase panel; conditions: read-out: Inhibition of kinase activity
T2 sequence (Q9BXA7 1-367): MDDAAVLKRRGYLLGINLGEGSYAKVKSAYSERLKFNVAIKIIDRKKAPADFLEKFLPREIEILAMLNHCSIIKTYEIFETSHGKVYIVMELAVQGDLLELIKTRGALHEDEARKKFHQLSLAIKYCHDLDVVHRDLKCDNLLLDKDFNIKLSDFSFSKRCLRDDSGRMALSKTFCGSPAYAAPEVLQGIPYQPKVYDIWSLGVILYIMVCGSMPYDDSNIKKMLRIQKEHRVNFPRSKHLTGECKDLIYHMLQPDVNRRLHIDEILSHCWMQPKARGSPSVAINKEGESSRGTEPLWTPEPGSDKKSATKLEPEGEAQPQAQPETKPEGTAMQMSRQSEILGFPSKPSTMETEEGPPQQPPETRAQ

LRRK2[A2016T], sequence (Q5S007 whole entry A2016T): as the sequence (Q5S007 whole entry A2016T) above

Concentration inducing dephosphorylation of Ser910 and 935 (GFP-LRRK2[A2016T]) [µM] | inhibition at 1 µM (CAMKKβ) [%] | inhibition at 1 µM (CHK2) [%] | inhibition at 1 µM (NUAK1) [%] | inhibition at 1 µM (PHKã1(PBK)) [%] | inhibition at 1 µM (TSSK1) [%] | SMILES | Exposure in mouse brains [1] | Inhibition of the A2016T mutant (LRRK2[A2016T]) | Ser910 and Ser935 dephosphorylation of LRRK2 in kidney and spleen (endogenous LRRK2; oral gavage 10 mg/kg, 10 mg/kg) | Ser910 and Ser935 dephosphorylation of LRRK2 in kidney and spleen (endogenous LRRK2; oral gavage 50 mg/kg) | Inhibition of LRRK2 Ser910 or Ser935 phosphorylation in the brain (endogenous LRRK2; oral gavage 10 or 50 mg/kg)
 |  |  |  |  |  | COc1cc(N2CCOCC2)ccc1Nc1ncc(F)c(Nc2ccccc2NS(C)(=O)=O)n1 [CZC-25146] | neither compound is able to achieve good exposure in mouse brains |  |  |  | 
 |  |  |  |  |  | COc1cc(C(=O)N2CCC(N3CCN(C)CC3)CC2)ccc1Nc1ncc2c(n1)N(C)c1ccccc1C(=O)N2C [LRRK2-IN-1] | neither compound is able to achieve good exposure in mouse brains | dramatic resistance |  |  | 
1 to 3 | > 90 | > 90 | > 90 | > 90 | > 90 | COc1cc(N2CCC(N3CCN(C)CC3)CC2)ccc1Nc1ncc(Cl)c(Nc2ccccc2S(=O)(=O)C(C)C)n1 [TAE684, 5-chloro-N4-(2-(isopropylsulfonyl)phenyl)-N2-(2-methoxy-4-(4-(4-methyl-piperazin-1-yl)piperidin-1-yl)phenyl)pyrimidine-2,4-diamine] |  | relatively insensitive to the A2016T mutation; also recorded: maintains significant inhibition | slightly lower effect; also recorded: substantially inhibits | complete Ser910 and Ser935 dephosphorylation | no inhibition; also recorded: does not inhibit phosphorylation; also recorded: not in brain
